Values quoted from earlier work in patent US11890293B2, “Synthetic composition for treating metabolic disorders” (GLYCOM A/S, priority 2014, dated 2024).

Assays:
[1] = test system: type 2 diabetes-model mice; conditions: oral doses

Compound	insulin secretion [1]	fat accumulation in the liver and other organs (high-fat diet mice)	fat accumulation in the liver and other organs (high-fat diet rats)
CC(=O)N[C@H]1[C@H]([C@H](O)[C@H](O)CO)O[C@@](OC[C@H]2O[C@@H](O[C@H]3[C@H](O)[C@@H](O)[C@H](O)O[C@@H]3CO)[C@H](O)[C@@H](O)[C@H]2O)(C(=O)O)C[C@@H]1O [6′-SL, 6′-sialyllactose]	promote insulin secretion	reduce/prevent fat accumulation in the liver and other organs	reduce/prevent fat accumulation in the liver and other organs
CC(=O)N[C@H]1[C@H]([C@H](O)[C@H](O)CO)O[C@@](O[C@H]2[C@@H](O)[C@@H](CO)O[C@@H](O[C@H]3[C@H](O)[C@@H](O)C(O)O[C@@H]3CO)[C@@H]2O)(C(=O)O)C[C@@H]1O (stereo partly shown) [3′-SL, 3′-sialyllactose]	promote insulin secretion	reduce/prevent fat accumulation in the liver and other organs	reduce/prevent fat accumulation in the liver and other organs
CC(=O)N[C@H]1[C@H](O[C@H]2[C@@H](O)[C@@H](CO)O[C@@H](O[C@H]3[C@H](O)[C@@H](O)C(O)O[C@@H]3CO)[C@@H]2O)O[C@H](CO)[C@@H](O[C@@H]2O[C@H](CO)[C@H](O)[C@H](O)[C@H]2O)[C@@H]1O (mixture of isomers) [LNnT, lacto-N-neotetraose]	promote insulin secretion		
